ChEMBL document CHEMBL3045955, “Design, synthesis and structure-activity relationship of novel insecticidal dichloro-allyloxy-phenol derivatives containing substituted pyrazol-3-ols” (2013)

Assays:
Type in all cases: functional
Details in all cases: 72 h
Plutella xylostella [1] = assay: Insecticidal activity against third-instar larvae of Plutella xylostella (diamondback moth) fed on compound treated cabbage leaves assessed as mortality at 100 mg/l after 3 days relative to control
Plutella xylostella [2] = assay: Insecticidal activity against third-instar larvae of Plutella xylostella (diamondback moth) fed on compound treated cabbage leaves assessed as mortality at 6.25 mg/l after 3 days relative to control
Plutella xylostella [3] = assay: Insecticidal activity against third-instar larvae of Plutella xylostella (diamondback moth) fed on compound treated cabbage leaves assessed as mortality at 25 mg/l after 3 days relative to control

## Cc1c(OCCCOc2c(Cl)cc(OCC=C(Cl)Cl)cc2Cl)nn(C)c1-c1ccccc1
Plutella xylostella [1]
  mortality at 100 µg/mL: 100%
Plutella xylostella [2]
  mortality at 6.25 µg/mL: 0%
Plutella xylostella [3]
  mortality at 25 µg/mL: 30%

## Cc1c(OCCCOc2c(Cl)cc(OCC=C(Cl)Cl)cc2Cl)nn(C)c1-c1ccc(Cl)c(Cl)c1
Plutella xylostella [1]
  mortality at 100 µg/mL: 100%
Plutella xylostella [2]
  mortality at 6.25 µg/mL: 50%
Plutella xylostella [3]
  mortality at 25 µg/mL: 75%

## Cc1c(OCCCOc2c(Cl)cc(OCC=C(Cl)Cl)cc2Cl)nn(C)c1-c1ccc(C(C)(C)C)cc1
Plutella xylostella [1]
  mortality at 100 µg/mL: 100%
Plutella xylostella [2]
  mortality at 6.25 µg/mL: 30%
Plutella xylostella [3]
  mortality at 25 µg/mL: 87%

## CCc1ccc(-c2cc(OCCCOc3c(Cl)cc(OCC=C(Cl)Cl)cc3Cl)nn2C)cc1
Plutella xylostella [1]
  mortality at 100 µg/mL: 70%
Plutella xylostella [2]
  mortality at 6.25 µg/mL: 30%
Plutella xylostella [3]
  mortality at 25 µg/mL: 40%

## Cc1ccc(-c2c(C)c(OCCCOc3c(Cl)cc(OCC=C(Cl)Cl)cc3Cl)nn2C)c(C)c1
Plutella xylostella [1]
  mortality at 100 µg/mL: 90%
Plutella xylostella [2]
  mortality at 6.25 µg/mL: 30%
Plutella xylostella [3]
  mortality at 25 µg/mL: 60%

## Cc1ccc(-c2c(C)c(OCCCOc3c(Cl)cc(OCC=C(Cl)Cl)cc3Cl)nn2C)cc1
Plutella xylostella [1]
  mortality at 100 µg/mL: 100%
Plutella xylostella [2]
  mortality at 6.25 µg/mL: 95%
Plutella xylostella [3]
  mortality at 25 µg/mL: 100%

## Cc1ccccc1-c1cc(OCCCOc2c(Cl)cc(OCC=C(Cl)Cl)cc2Cl)nn1C
Plutella xylostella [1]
  mortality at 100 µg/mL: 100%
Plutella xylostella [2]
  mortality at 6.25 µg/mL: 40%
Plutella xylostella [3]
  mortality at 25 µg/mL: 70%

## Cc1ccc(-c2cc(OCCCOc3c(Cl)cc(OCC=C(Cl)Cl)cc3Cl)nn2C)cc1C
Plutella xylostella [1]
  mortality at 100 µg/mL: 80%
Plutella xylostella [2]
  mortality at 6.25 µg/mL: 0%
Plutella xylostella [3]
  mortality at 25 µg/mL: 50%

## Cc1ccc(-c2c(C)c(OCCOc3c(Cl)cc(OCC=C(Cl)Cl)cc3Cl)nn2C)cc1
Plutella xylostella [1]
  mortality at 100 µg/mL: 17%
Plutella xylostella [2]
  mortality at 6.25 µg/mL: 0%
Plutella xylostella [3]
  mortality at 25 µg/mL: 0%

## FC(F)(F)c1ccc(OCCCOc2c(Cl)cc(OCC=C(Cl)Cl)cc2Cl)nc1 [PYRIDALYL]
Plutella xylostella [1]
  mortality at 100 µg/mL: 100%
Plutella xylostella [2]
  mortality at 6.25 µg/mL: 65%
Plutella xylostella [3]
  mortality at 25 µg/mL: 100%

## Cc1ccc(-c2c(C)c(OCCCCOc3c(Cl)cc(OCC=C(Cl)Cl)cc3Cl)nn2C)cc1
Plutella xylostella [1]
  mortality at 100 µg/mL: 100%
Plutella xylostella [2]
  mortality at 6.25 µg/mL: 42%
Plutella xylostella [3]
  mortality at 25 µg/mL: 50%

## Cn1nc(OCCCOc2c(Cl)cc(OCC=C(Cl)Cl)cc2Cl)cc1-c1ccc(Cl)cc1
Plutella xylostella [1]
  mortality at 100 µg/mL: 100%
Plutella xylostella [2]
  mortality at 6.25 µg/mL: 65%
Plutella xylostella [3]
  mortality at 25 µg/mL: 100%

## Cc1c(OCCCOc2c(Cl)cc(OCC=C(Cl)Cl)cc2Cl)nn(C)c1-c1ccc(C(C)C)cc1
Plutella xylostella [1]
  mortality at 100 µg/mL: 100%
Plutella xylostella [2]
  mortality at 6.25 µg/mL: 85%
Plutella xylostella [3]
  mortality at 25 µg/mL: 100%

## CCc1ccc(-c2c(C)c(OCCOc3c(Cl)cc(OCC=C(Cl)Cl)cc3Cl)nn2C)cc1
Plutella xylostella [1]
  mortality at 100 µg/mL: 67%
Plutella xylostella [2]
  mortality at 6.25 µg/mL: 0%
Plutella xylostella [3]
  mortality at 25 µg/mL: 33%

## Cc1ccc(-c2c(C)c(OCCCOc3c(Cl)cc(OCC=C(Cl)Cl)cc3Cl)nn2C)cc1C
Plutella xylostella [1]
  mortality at 100 µg/mL: 100%
Plutella xylostella [2]
  mortality at 6.25 µg/mL: 87%
Plutella xylostella [3]
  mortality at 25 µg/mL: 100%

## CCc1ccc(-c2c(C)c(OCCCOc3c(Cl)cc(OCC=C(Cl)Cl)cc3Cl)nn2C)cc1
Plutella xylostella [1]
  mortality at 100 µg/mL: 100%
Plutella xylostella [2]
  mortality at 6.25 µg/mL: 60%
Plutella xylostella [3]
  mortality at 25 µg/mL: 77%

## Cc1c(OCCCOc2c(Cl)cc(OCC=C(Cl)Cl)cc2Cl)nn(C)c1-c1ccc(Cl)cc1Cl
Plutella xylostella [1]
  mortality at 100 µg/mL: 85%
Plutella xylostella [2]
  mortality at 6.25 µg/mL: 67%
Plutella xylostella [3]
  mortality at 25 µg/mL: 80%

## CCc1ccc(-c2c(C)c(OCCCCOc3c(Cl)cc(OCC=C(Cl)Cl)cc3Cl)nn2C)cc1
Plutella xylostella [1]
  mortality at 100 µg/mL: 100%
Plutella xylostella [2]
  mortality at 6.25 µg/mL: 10%
Plutella xylostella [3]
  mortality at 25 µg/mL: 50%

## Cn1nc(OCCCOc2c(Cl)cc(OCC=C(Cl)Cl)cc2Cl)cc1-c1ccc(Cl)cc1Cl
Plutella xylostella [1]
  mortality at 100 µg/mL: 100%
Plutella xylostella [2]
  mortality at 6.25 µg/mL: 0%
Plutella xylostella [3]
  mortality at 25 µg/mL: 80%

## Cc1ccc(C)c(-c2c(C)c(OCCCOc3c(Cl)cc(OCC=C(Cl)Cl)cc3Cl)nn2C)c1
Plutella xylostella [1]
  mortality at 100 µg/mL: 75%
Plutella xylostella [2]
  mortality at 6.25 µg/mL: 37%
Plutella xylostella [3]
  mortality at 25 µg/mL: 67%

## Cc1c(OCCCOc2c(Cl)cc(OCC=C(Cl)Cl)cc2Cl)nn(C)c1-c1ccc(F)cc1
Plutella xylostella [1]
  mortality at 100 µg/mL: 100%
Plutella xylostella [2]
  mortality at 6.25 µg/mL: 30%
Plutella xylostella [3]
  mortality at 25 µg/mL: 80%

## CCOc1ccc(-c2c(C)c(OCCCOc3c(Cl)cc(OCC=C(Cl)Cl)cc3Cl)nn2C)cc1
Plutella xylostella [1]
  mortality at 100 µg/mL: 100%
Plutella xylostella [2]
  mortality at 6.25 µg/mL: 10%
Plutella xylostella [3]
  mortality at 25 µg/mL: 20%

## COc1ccc(-c2c(C)c(OCCCOc3c(Cl)cc(OCC=C(Cl)Cl)cc3Cl)nn2C)cc1
Plutella xylostella [1]
  mortality at 100 µg/mL: 100%
Plutella xylostella [2]
  mortality at 6.25 µg/mL: 10%
Plutella xylostella [3]
  mortality at 25 µg/mL: 40%

## Cc1ccc(-c2cc(OCCCOc3c(Cl)cc(OCC=C(Cl)Cl)cc3Cl)nn2C)c(C)c1
Plutella xylostella [1]
  mortality at 100 µg/mL: 90%
Plutella xylostella [2]
  mortality at 6.25 µg/mL: 30%
Plutella xylostella [3]
  mortality at 25 µg/mL: 50%

## Cn1nc(OCCCOc2c(Cl)cc(OCC=C(Cl)Cl)cc2Cl)cc1-c1ccccc1
Plutella xylostella [1]
  mortality at 100 µg/mL: 100%
Plutella xylostella [2]
  mortality at 6.25 µg/mL: 75%
Plutella xylostella [3]
  mortality at 25 µg/mL: 100%

## Cc1c(OCCCOc2c(Cl)cc(OCC=C(Cl)Cl)cc2Cl)nn(C)c1-c1ccc(Cl)cc1
Plutella xylostella [1]
  mortality at 100 µg/mL: 80%
Plutella xylostella [2]
  mortality at 6.25 µg/mL: 20%
Plutella xylostella [3]
  mortality at 25 µg/mL: 50%
